In ChEMBL document CHEMBL1201862, “PubChem BioAssay data set” (2004):
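96-well plates; 48 h exposure; 5 concentrations. Endpoints by linear interpolation between flanking doses. Not reached: highest tested concentration assigned. The concentration for 50% growth inhibition is given as GI50.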 The source made the active and inactive calls. Cut-off read from the data, not from the text of the source: active = GI50 up to about 1.1 µM and inactive = higher.

Legend:
Assay in all cases: inhibition of tumour cell growth, NCI panel, 48 h
HCC 2998 = tested on: HCC 2998
SF-295 = tested on: SF-295
UACC-257 = tested on: UACC-257
UACC-62 = tested on: UACC-62
OVCAR-5 = tested on: OVCAR-5
A549 = tested on: A549
EKVX = tested on: EKVX
HL-60 = tested on: HL-60
786-0 = tested on: 786-0
KM12 = tested on: KM12
OVCAR-3 = tested on: OVCAR-3
ACHN = tested on: ACHN
M14 = tested on: M14
CCRF-CEM = tested on: CCRF-CEM
COLO 205 = tested on: COLO 205
HT-29 = tested on: HT-29
PC-3 = tested on: PC-3
SK-MEL-5 = tested on: SK-MEL-5
SR = tested on: SR

SMILES	GI50 (HCC 2998)	GI50 (SF-295)	GI50 (UACC-257)	GI50 (UACC-62)	GI50 (OVCAR-5)	GI50 (A549)	GI50 (EKVX)	GI50 (HL-60)	GI50 (786-0)	GI50 (KM12)	GI50 (OVCAR-3)	GI50 (ACHN)	GI50 (M14)	GI50 (CCRF-CEM)	GI50 (COLO 205)	GI50 (HT-29)	GI50 (PC-3)	GI50 (SK-MEL-5)	GI50 (SR)
O=c1ncc(F)cn1C1OC(CO)C(O)C1O (stereo not given)	16.9 µM (inactive)	> 29.7 µM (inactive)	14.1 µM (inactive)	> 37.6 µM (inactive)	> 52 µM (inactive)	> 36.6 µM (inactive)	> 100 µM (inactive)	19.3 µM (inactive)	> 36.4 µM (inactive)	> 30.5 µM (inactive)	> 26.7 µM (inactive)	> 44 µM (inactive)	> 52 µM (inactive)	14.7 µM (inactive)	> 24.6 µM (inactive)	> 30.7 µM (inactive)	–	–	–
COc1cc2c(/C=C3/C(=O)Nc4ccc(O)cc43)c(Cl)[nH]c2cc1C	–	0.0984 µM (active)	0.615 µM (active)	0.0499 µM (active)	0.618 µM (active)	0.397 µM (active)	0.679 µM (active)	0.0343 µM (active)	0.173 µM (active)	0.045 µM (active)	0.026 µM (active)	0.108 µM (active)	0.0897 µM (active)	0.0462 µM (active)	0.192 µM (active)	0.149 µM (active)	0.359 µM (active)	0.0822 µM (active)	–
O=C(c1ccsc1)c1nccc2c1cnc1ccccc12	–	45.5 µM (inactive)	45.2 µM (inactive)	65.6 µM (inactive)	49.8 µM (inactive)	> 100 µM (inactive)	15.6 µM (inactive)	2.47 µM (inactive)	97.7 µM (inactive)	> 100 µM (inactive)	> 100 µM (inactive)	> 100 µM (inactive)	> 100 µM (inactive)	> 100 µM (inactive)	> 100 µM (inactive)	> 100 µM (inactive)	> 100 µM (inactive)	36.2 µM (inactive)	–
Cc1ccccc1Nc1nc(NNC(=O)Cc2ccccc2)nc(NNC(=O)c2ccncc2)n1	> 10 µM (inactive)	–	> 10 µM (inactive)	> 10 µM (inactive)	–	–	> 10 µM (inactive)	> 10 µM (inactive)	> 10 µM (inactive)	> 10 µM (inactive)	–	–	> 10 µM (inactive)	> 10 µM (inactive)	> 10 µM (inactive)	> 10 µM (inactive)	–	–	> 10 µM (inactive)
CC(=O)c1cccc(Nc2nc3ccccc3c3[nH]c4ccccc4c23)c1	–	3.53 µM (inactive)	9.04 µM (inactive)	1.94 µM (inactive)	6.52 µM (inactive)	2.78 µM (inactive)	3.05 µM (inactive)	–	3.01 µM (inactive)	4.66 µM (inactive)	2.48 µM (inactive)	3.63 µM (inactive)	8.79 µM (inactive)	5.74 µM (inactive)	2.23 µM (inactive)	4.02 µM (inactive)	4.65 µM (inactive)	–	–
COC(=O)Nc1nc2cc(C(=O)c3ccc[nH]3)ccc2[nH]1	2.55 µM (inactive)	0.759 µM (active)	–	0.425 µM (active)	> 100 µM (inactive)	–	–	0.0689 µM (active)	1.69 µM (inactive)	0.49 µM (active)	–	–	0.571 µM (active)	0.577 µM (active)	0.342 µM (active)	0.415 µM (active)	0.348 µM (active)	0.282 µM (active)	–
Cn1c2c(c3ccccc31)CCN1C(=O)C3SC21C1C(=O)N(c2ccccc2)C(=O)C31 (stereo not given)	–	> 100 µM (inactive)	20 µM (inactive)	21.5 µM (inactive)	> 100 µM (inactive)	> 100 µM (inactive)	> 100 µM (inactive)	25 µM (inactive)	> 100 µM (inactive)	> 100 µM (inactive)	> 100 µM (inactive)	33 µM (inactive)	> 100 µM (inactive)	–	41.8 µM (inactive)	> 100 µM (inactive)	–	20.4 µM (inactive)	35.3 µM (inactive)
Clc1ccc(Nc2nn3c(CCCCCCCCc4nnc5sc(Nc6ccc(Cl)cc6)nn45)nnc3s2)cc1	> 100 µM (inactive)	36 µM (inactive)	> 100 µM (inactive)	> 100 µM (inactive)	> 100 µM (inactive)	> 100 µM (inactive)	> 100 µM (inactive)	–	51.6 µM (inactive)	> 100 µM (inactive)	> 100 µM (inactive)	> 100 µM (inactive)	> 100 µM (inactive)	17.6 µM (inactive)	> 100 µM (inactive)	49.3 µM (inactive)	> 100 µM (inactive)	> 100 µM (inactive)	–
CN1CCN(C)C12C=CC=CC21CC1	> 100 µM (inactive)	> 100 µM (inactive)	> 100 µM (inactive)	> 100 µM (inactive)	> 100 µM (inactive)	> 100 µM (inactive)	> 100 µM (inactive)	> 100 µM (inactive)	> 100 µM (inactive)	> 100 µM (inactive)	> 100 µM (inactive)	> 100 µM (inactive)	> 100 µM (inactive)	> 100 µM (inactive)	> 100 µM (inactive)	> 100 µM (inactive)	–	> 100 µM (inactive)	> 100 µM (inactive)
O=C1CCCNn2c(nc3ncccc3c2=O)N1	–	> 100 µM (inactive)	> 100 µM (inactive)	> 100 µM (inactive)	> 100 µM (inactive)	> 100 µM (inactive)	> 100 µM (inactive)	> 100 µM (inactive)	> 100 µM (inactive)	78.7 µM (inactive)	> 100 µM (inactive)	> 100 µM (inactive)	> 100 µM (inactive)	> 100 µM (inactive)	> 100 µM (inactive)	> 100 µM (inactive)	> 100 µM (inactive)	> 100 µM (inactive)	–
O=C(O)c1cccc(F)c1C(=O)c1ccc2ccccc2c1	–	> 100 µM (inactive)	> 100 µM (inactive)	> 100 µM (inactive)	> 100 µM (inactive)	> 100 µM (inactive)	> 100 µM (inactive)	> 100 µM (inactive)	> 100 µM (inactive)	> 100 µM (inactive)	> 100 µM (inactive)	> 100 µM (inactive)	> 100 µM (inactive)	> 100 µM (inactive)	2.99 µM (inactive)	> 100 µM (inactive)	> 100 µM (inactive)	< 0.01 µM (active)	–
CC1=C(N(C)C)C(=O)c2nc3n(c2C1=O)CCC3OC(N)=O (stereo not given)	18.2 µM (inactive)	15.2 µM (inactive)	14.2 µM (inactive)	5.58 µM (inactive)	19.6 µM (inactive)	18.8 µM (inactive)	20.5 µM (inactive)	10.4 µM (inactive)	17.1 µM (inactive)	17.2 µM (inactive)	16.8 µM (inactive)	16.7 µM (inactive)	13.6 µM (inactive)	15.1 µM (inactive)	18 µM (inactive)	19.7 µM (inactive)	–	11.5 µM (inactive)	31.3 µM (inactive)
Cc1ccc2c(O)cc(-c3cccc(Cl)c3)nc2n1	0.12 µM (active)	< 0.0151 µM (active)	0.0393 µM (active)	< 0.01 µM (active)	–	0.0325 µM (active)	> 68.1 µM (inactive)	< 0.0169 µM (active)	< 0.0255 µM (active)	< 0.0196 µM (active)	< 0.01 µM (active)	0.313 µM (active)	0.0306 µM (active)	< 0.0238 µM (active)	0.0308 µM (active)	< 0.0179 µM (active)	–	< 0.0177 µM (active)	0.0266 µM (active)
